Columns and labels:
Assay type in all cases: in vivo
[1] = test system: chickweed (common chickweed, Stellaria media); experiment: Test D pre-/postemergence controlled growth environment herbicide test; conditions: scale 0 to 100
Outline: (§1)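 Pre-emergence treatment on silt loam soil and post-emergence treatment of 1- to 4-leaf plants (2–18 cm) in peat-based medium, compounds in a non-phytotoxic solvent with surfactant. Visual rating against untreated controls after 14–21 d in a controlled environment, scale 0 (no effect) to 100 (complete control).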

[2] = test system: speedwell (bird's-eye speedwell, Veronica persica); experiment: as above; conditions: scale 0 to 100
Outline: as §1

[3] = test system: canarygrass (Phalaris minor); experiment: as above; conditions: scale 0 to 100
Outline: as §1

[4] = test system: waterhemp_RES2 (ALS & HPPD resistant common waterhemp, Amaranthus rudis); experiment: Test E postemergence greenhouse herbicide test; conditions: scale 0 to 100
Method: (§2) At the same time, plants from these crop and weed species and also waterhemp_RES1, (ALS & Triazine resistant common waterhemp, Amaranthus rudis), and waterhemp_RES2, (ALS & HPPD resistant common waterhemp, Amaranthus rudis) were planted in pots containing Redi-Earth® planting medium (Scotts Company, 14111 Scottslawn Road, Marysville, Ohio 43041) comprising spaghnum peat moss, vermiculite, wetting agent and starter nutrients were treated with postemergence applications of test chemicals formulated in the same manner. Plants ranged in height from 2 to 18 cm for postemergence treatments (1- to 4-leaf stage). Treated plants and controls were maintained in a greenhouse for 14 to 21 d, after which time all species were compared to controls and visually evaluated. Plant response ratings, summarized in Table E, are based on a scale of 0 to 100 where 0 is no effect and 100 is complete control. A dash (-) response means no test result.

[5] = test system: waterhemp_RES1 (ALS & Triazine resistant common waterhemp, Amaranthus rudis); experiment: Test E postemergence greenhouse herbicide test; conditions: scale 0 to 100
Method: as §2

[6] = test system: crabgrass, large (large crabgrass Digitaria sanguinalis); experiment: Test E pre-/postemergence greenhouse herbicide test; conditions: Preemergence, scale 0 to 100
[7] = test system: cocklebur (common cocklebur, Xanthium strumarium); experiment: as above; conditions: Preemergence, scale 0 to 100
[8] = test system: nutsedge, yellow (yellow nutsedge, Cyperus esculentus); experiment: as above; conditions: Preemergence, scale 0 to 100
[9] = test system: surinam grass (Brachiaria decumbens); experiment: as above; conditions: Preemergence, scale 0 to 100

COc1cc(=O)n(-c2ccc(F)cc2)nc1Cc1ccnc(C(F)(F)F)c1 [Compound 17, 2-(4-fluorophenyl)-5-methoxy-6-[[2-(trifluoromethyl)-4-pyridinyl]methyl]-3 (2H)-pyridazinone]
95: Plant response rating: Waterhemp_RES2 ([4]; 250 g ai/ha)
60: Plant response rating ([1]; Postemergence, 125 g ai/ha) | Plant response rating: Waterhemp_RES2 ([4]; 16 g ai/ha) | Plant response rating: Waterhemp_RES1 ([5]; 31 g ai/ha) | Plant response rating: Waterhemp_RES1 ([5]; 62 g ai/ha)
85: Plant response rating: Waterhemp_RES1 ([5]; 125 g ai/ha)
100: Plant response rating ([1]; Postemergence, 250 g ai/ha) | Plant response rating ([1]; Postemergence, 500 g ai/ha) | Plant response rating ([1]; Preemergence, 31 g ai/ha) | Plant response rating ([1]; Preemergence, 62 g ai/ha) | Plant response rating ([1]; Preemergence, 125 g ai/ha) | Plant response rating ([1]; Preemergence, 250 g ai/ha) | Plant response rating ([1]; Preemergence, 500 g ai/ha) | Plant response rating ([2]; Postemergence, 62 g ai/ha) | Plant response rating ([2]; Postemergence, 125 g ai/ha) | Plant response rating ([2]; Postemergence, 250 g ai/ha) | Plant response rating ([2]; Postemergence, 500 g ai/ha) | Plant response rating ([2]; Preemergence, 31 g ai/ha) | Plant response rating ([2]; Preemergence, 62 g ai/ha) | Plant response rating ([2]; Preemergence, 125 g ai/ha) | Plant response rating ([2]; Preemergence, 250 g ai/ha) | Plant response rating ([2]; Preemergence, 500 g ai/ha) | Plant response rating: Crabgrass, Large ([6]; 31 g ai/ha) | Plant response rating: Crabgrass, Large ([6]; 62 g ai/ha) | Plant response rating: Crabgrass, Large ([6]; 125 g ai/ha) | Plant response rating: Crabgrass, Large ([6]; 250 g ai/ha)
30: Plant response rating ([3]; Postemergence, 250 g ai/ha) | Plant response rating ([3]; Preemergence, 250 g ai/ha)
10: Plant response rating ([1]; Postemergence, 31 g ai/ha) | Plant response rating ([2]; Postemergence, 31 g ai/ha) | Plant response rating ([3]; Postemergence, 31 g ai/ha) | Plant response rating ([3]; Preemergence, 125 g ai/ha)
65: Plant response rating: Surinam Grass ([9]; 62 g ai/ha)
80: Plant response rating: Waterhemp_RES2 ([4]; 31 g ai/ha) | Plant response rating: Waterhemp_RES2 ([4]; 62 g ai/ha)
75: Plant response rating: Surinam Grass ([9]; 125 g ai/ha) | Plant response rating: Surinam Grass ([9]; 250 g ai/ha)
20: Plant response rating ([3]; Postemergence, 62 g ai/ha) | Plant response rating ([3]; Postemergence, 125 g ai/ha) | Plant response rating: Surinam Grass ([9]; 31 g ai/ha)
50: Plant response rating ([3]; Preemergence, 500 g ai/ha) | Plant response rating: Waterhemp_RES1 ([5]; 16 g ai/ha) | Plant response rating: Nutsedge, Yellow ([8]; 125 g ai/ha)
90: Plant response rating: Waterhemp_RES2 ([4]; 125 g ai/ha) | Plant response rating: Waterhemp_RES1 ([5]; 250 g ai/ha)
35: Plant response rating ([3]; Postemergence, 500 g ai/ha) | Plant response rating: Crabgrass, Large ([6]; 16 g ai/ha) | Plant response rating: Nutsedge, Yellow ([8]; 62 g ai/ha)
0: Plant response rating ([3]; Preemergence, 31 g ai/ha) | Plant response rating ([3]; Preemergence, 62 g ai/ha) | Plant response rating: Cocklebur ([7]; 16 g ai/ha) | Plant response rating: Cocklebur ([7]; 62 g ai/ha) | Plant response rating: Nutsedge, Yellow ([8]; 16 g ai/ha) | Plant response rating: Nutsedge, Yellow ([8]; 31 g ai/ha) | Plant response rating: Surinam Grass ([9]; 16 g ai/ha)
40: Plant response rating ([1]; Postemergence, 62 g ai/ha)
70: Plant response rating: Nutsedge, Yellow ([8]; 250 g ai/ha)

Source: patent publication US10202361B2, “Pyridazinones as herbicides” (E I DU PONT DE NEMOURS AND COMPANY, priority 2014, dated 2019)
